Source: US20240083897A1, “GCN2 MODULATING COMPOUNDS AND USES THEREOF” (HiberCell, Inc., priority 2021, published 2024)

The compounds below were run against GCN2 (Homo sapiens (Human), UniProt Q9P2K8) (assay: TR-FRET biochemical assay for inhibition of GCN2). Conditions: not given.
Sequence of GCN2 (Q9P2K8 whole entry): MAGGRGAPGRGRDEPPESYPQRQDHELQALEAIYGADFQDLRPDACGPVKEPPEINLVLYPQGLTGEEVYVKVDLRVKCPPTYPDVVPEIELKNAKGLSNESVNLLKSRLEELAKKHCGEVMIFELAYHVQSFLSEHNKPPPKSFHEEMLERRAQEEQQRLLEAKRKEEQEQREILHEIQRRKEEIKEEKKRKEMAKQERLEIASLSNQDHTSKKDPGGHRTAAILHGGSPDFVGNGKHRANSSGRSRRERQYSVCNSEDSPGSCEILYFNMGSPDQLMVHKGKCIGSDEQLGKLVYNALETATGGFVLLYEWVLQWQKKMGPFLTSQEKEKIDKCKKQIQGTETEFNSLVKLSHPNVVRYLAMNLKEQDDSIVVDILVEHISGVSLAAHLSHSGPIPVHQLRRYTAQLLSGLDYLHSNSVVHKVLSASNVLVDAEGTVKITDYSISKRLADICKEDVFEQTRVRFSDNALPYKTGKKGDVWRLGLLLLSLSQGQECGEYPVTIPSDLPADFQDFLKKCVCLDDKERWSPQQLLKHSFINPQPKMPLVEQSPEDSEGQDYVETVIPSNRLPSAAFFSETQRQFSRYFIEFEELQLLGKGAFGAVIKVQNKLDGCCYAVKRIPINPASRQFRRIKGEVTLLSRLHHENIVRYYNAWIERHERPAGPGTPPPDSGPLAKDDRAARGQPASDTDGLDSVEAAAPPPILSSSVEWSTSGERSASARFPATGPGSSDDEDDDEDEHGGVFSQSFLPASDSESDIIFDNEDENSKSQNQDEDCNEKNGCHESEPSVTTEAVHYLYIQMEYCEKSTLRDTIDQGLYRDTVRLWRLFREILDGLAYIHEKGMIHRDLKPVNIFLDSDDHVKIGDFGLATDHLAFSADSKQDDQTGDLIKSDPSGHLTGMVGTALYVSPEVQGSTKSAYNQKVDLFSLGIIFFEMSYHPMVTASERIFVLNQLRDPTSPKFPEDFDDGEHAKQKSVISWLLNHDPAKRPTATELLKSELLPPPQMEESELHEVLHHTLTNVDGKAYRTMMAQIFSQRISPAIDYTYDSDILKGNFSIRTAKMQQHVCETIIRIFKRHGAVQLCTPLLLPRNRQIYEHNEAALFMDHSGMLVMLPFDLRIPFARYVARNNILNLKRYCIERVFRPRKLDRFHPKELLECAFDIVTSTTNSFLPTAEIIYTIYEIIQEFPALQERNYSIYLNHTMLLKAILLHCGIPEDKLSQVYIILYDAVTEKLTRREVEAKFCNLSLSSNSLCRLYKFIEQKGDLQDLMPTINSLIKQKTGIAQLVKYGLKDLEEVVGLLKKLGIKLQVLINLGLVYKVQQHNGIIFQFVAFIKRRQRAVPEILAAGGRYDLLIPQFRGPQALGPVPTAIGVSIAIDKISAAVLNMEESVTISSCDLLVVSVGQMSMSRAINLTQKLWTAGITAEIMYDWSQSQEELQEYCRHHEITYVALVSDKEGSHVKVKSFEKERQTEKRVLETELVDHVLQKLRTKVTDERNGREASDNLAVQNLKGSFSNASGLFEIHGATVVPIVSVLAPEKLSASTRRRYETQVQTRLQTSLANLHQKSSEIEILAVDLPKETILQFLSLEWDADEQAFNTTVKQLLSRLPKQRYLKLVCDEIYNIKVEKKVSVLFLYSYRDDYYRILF
`COc1ncc(C#N)cc1S(=O)(=O)Nc1ccc(F)c([C@H]2CCc3c(-c4ncc[nH]4)ncn3C2)c1F` [Compound 82-1, 5-cyano-N-[2,4-difluoro-3-[(6R)-1-(1H-imidazol-2-yl)-5H,6H,7H,8H-imidazo[1,5-a]pyridin-6-yl]phenyl]-2-methoxypyridine-3-sulfonamide] was tested, and the IC50 was 50 to 500 nM. `COc1ncc(C#N)cc1S(=O)(=O)Nc1ccc(F)c([C@@H]2CCc3c(-c4ncc[nH]4)ncn3C2)c1F` [Compound 82-2, 5-cyano-N-[2,4-difluoro-3-[(6S)-1-(1H-imidazol-2-yl)-5H,6H,7H,8H-imidazo[1,5-a]pyridin-6-yl]phenyl]-2-methoxypyridine-3-sulfonamide] showed an IC50 of 50 to 500 nM. `CNC(=O)c1ncn2cc(-c3c(F)ccc(NS(=O)(=O)c4cc(F)cnc4OC)c3F)ncc12` [Compound 90, 6-[2,6-difluoro-3-(5-fluoro-2-methoxypyridine-3-sulfonamido)phenyl]-N-methylimidazo[1,5-a]pyrazine-1-carboxamide] was tested, and the IC50 was 50 to 500 nM. Compound `CNC(=O)c1ncn2cc(-c3c(F)ccc(NS(=O)(=O)c4cc(F)cnc4C)c3F)ncc12` [Compound 91, 6-[2,6-difluoro-3-(5-fluoro-2-methylpyridine-3-sulfonamido)phenyl]-N-methylimidazo[1,5-a]pyrazine-1-carboxamide] has an IC50 of 50 to 500 nM. Compound `CNC(=O)c1ncn2cc(-c3c(F)ccc(NS(=O)(=O)c4cc(C#N)cnc4OC)c3F)ncc12` [Compound 92, 6-[3-(5-cyano-2-methoxypyridine-3-sulfonamido)-2,6-difluorophenyl]-N-methylimidazo[1,5-a]pyrazine-1-carboxamide] has an IC50 of 50 to 500 nM. Work on `COc1ncc(Cl)cc1S(=O)(=O)Nc1ccc(F)c(-c2ccc3c(CO)ncn3c2)c1F` [Compound 94, 5-chloro-N-(2,4-difluoro-3-(1-(hydroxymethyl)imidazo[1,5-a]pyridin-6-yl)phenyl)-2-methoxypyridine-3-sulfonamide] yielded an IC50 of 500 to 1000 nM. Work on `CNC(=O)c1ncn2c1CC[C@H](c1c(F)ccc(NS(=O)(=O)c3cc(Cl)cnc3OC)c1F)[C@@H]2C` [Compound 96-1, (5S,6R)-6-[3-(5-chloro-2-methoxypyridine-3-sulfonamido)-2,6-difluorophenyl]-N,5-dimethyl-5H,6H,7H,8H-imidazo[1,5-a]pyridine-1-carboxamide] yielded an IC50 of 50 to 500 nM. `CNC(=O)c1ncn2c1CC[C@@H](c1c(F)ccc(NS(=O)(=O)c3cc(Cl)cnc3OC)c1F)[C@H]2C` [Compound 96-2, (5R,6S)-6-[3-(5-chloro-2-methoxypyridine-3-sulfonamido)-2,6-difluorophenyl]-N,5-dimethyl-5H,6H,7H,8H-imidazo[1,5-a]pyridine-1-carboxamide] was tested, and the IC50 was 500 to 1000 nM. Work on `COc1ncc(Cl)cc1S(=O)(=O)Nc1ccc(F)c(-c2ccc3c(C(C)O)ncn3c2)c1F` (stereo not shown) [Compound 100, 5-chloro-N-[2,4-difluoro-3-[1-(1-hydroxyethyl)imidazo[1,5-a]pyridin-6-yl]phenyl]-2-methoxypyridine-3-sulfonamide] yielded an IC50 of 500 to 1000 nM. Compound `COc1ncc(Cl)cc1S(=O)(=O)Nc1ccc(F)c(-c2ccc3c(-c4nnc(C(F)(F)F)[nH]4)ncn3c2)c1F` [Compound 102, 5-chloro-N-(2,4-difluoro-3-[1-[5-(trifluoromethyl)-4H-1,2,4-triazol-3-yl]imidazo[1,5-a]pyridin-6-yl]phenyl)-2-methoxypyridine-3-sulfonamide] has an IC50 of 50 to 500 nM.

Same assay, conditions: GCN2 2 nM, 100 nM GFP-eIF2a, 150 μM ATP, TR-FRET
With `Cc1ncc(Cl)cc1S(=O)(=O)Nc1ccc(F)c(-c2cn3cnc(-c4ncc[nH]4)c3cn2)c1F` [Compound 83, 5-chloro-N-[2,4-difluoro-3-[1-(1H-imidazol-2-yl)imidazo[1,5-a]pyrazin-6-yl]phenyl]-2-methylpyridine-3-sulfonamide] the IC50 was less than 50 nM. With `COc1ncc(Cl)cc1S(=O)(=O)Nc1ccc(F)c(-c2ccc3c(-c4ncc[nH]4)ncn3n2)c1F` [Compound 85, 5-chloro-N-[2,4-difluoro-3-[5-(1H-imidazol-2-yl)imidazo[1,5-b]pyridazin-2-yl]phenyl]-2-methoxypyridine-3-sulfonamide] the IC50 was less than 50 nM. With `COc1ncc(Cl)cc1S(=O)(=O)Nc1ccc(F)c(-c2ccc3c(-c4nnc(C5CC5)[nH]4)ncn3c2)c1F` [Compound 87, 5-chloro-N-[3-[1-(5-cyclopropyl-4H-1,2,4-triazol-3-yl)imidazo[1,5-a]pyridin-6-yl]-2,4-difluorophenyl]-2-methoxypyridine-3-sulfonamide] the IC50 was less than 50 nM. `COc1ncc(Cl)cc1S(=O)(=O)Nc1ccc(F)c(-c2ccc3c(-c4nnc(C(C)C)[nH]4)ncn3c2)c1F` [Compound 88, 5-chloro-N-[2,4-difluoro-3-[1-(5-isopropyl-4H-1,2,4-triazol-3-yl)imidazo[1,5-a]pyridin-6-yl]phenyl]-2-methoxypyridine-3-sulfonamide] was tested, and the IC50 was less than 50 nM. `CNC(=O)c1ncn2cc(-c3c(F)ccc(NS(=O)(=O)c4cc(Cl)cnc4C)c3F)ncc12` [Compound 93, 6-[3-(5-chloro-2-methylpyridine-3-sulfonamido)-2,6-difluorophenyl]-N-methylimidazo[1,5-a]pyrazine-1-carboxamide] gave an IC50 of less than 50 nM. `Cc1ncc(Cl)cc1S(=O)(=O)Nc1ccc(F)c(-c2ccc3c(-c4ncc[nH]4)ncn3n2)c1F` [Compound 95, 5-chloro-N-[2,4-difluoro-3-[5-(1H-imidazol-2-yl)imidazo[1,5-b]pyridazin-2-yl]phenyl]-2-methylpyridine-3-sulfonamide] was tested, and the IC50 was less than 50 nM. Work on `COc1ncc(C#N)cc1S(=O)(=O)Nc1ccc(F)c(-c2ccc3c(-c4ncc[nH]4)ncn3n2)c1F` [Compound 97, 5-cyano-N-[2,4-difluoro-3-[5-(1H-imidazol-2-yl)imidazo[1,5-b]pyridazin-2-yl]phenyl]-2-methoxypyridine-3-sulfonamide] yielded an IC50 of less than 50 nM. For `COc1ncc(F)cc1S(=O)(=O)Nc1ccc(F)c(-c2ccc3c(-c4ncc[nH]4)ncn3n2)c1F` [Compound 98, N-[2,4-difluoro-3-[5-(1H-imidazol-2-yl)imidazo[1,5-b]pyridazin-2-yl]phenyl]-5-fluoro-2-methoxypyridine-3-sulfonamide], the IC50 was less than 50 nM. Compound `COc1ncc(Cl)cc1S(=O)(=O)Nc1ccc(F)c(-c2ccc3c(-c4ccno4)ncn3c2)c1F` [Compound 99, 5-chloro-N-(2,4-difluoro-3-(1-(isoxazol-5-yl)imidazo[1,5-a]pyridin-6-yl)phenyl)-2-methoxypyridine-3-sulfonamide] has an IC50 of less than 50 nM. `CNC(=O)c1ncn2cc(-c3c(F)ccc(NS(=O)(=O)c4cc(Cl)cnc4OC)c3Cl)ccc12` [Compound 101, 6-(2-chloro-3-((5-chloro-2-methoxypyridine)-3-sulfonamido)-6-fluorophenyl)-N-methylimidazo[1,5-a]pyridine-1-carboxamide] showed an IC50 of less than 50 nM. `COc1ncc(Cl)cc1S(=O)(=O)Nc1ccc(F)c(-c2ccc3c(-c4ncc[nH]4)ncn3c2)c1Cl` [Compound 103, 5-chloro-N-[2-chloro-4-fluoro-3-[1-(1H-imidazol-2-yl)imidazo[1,5-a]pyridin-6-yl]phenyl]-2-methoxypyridine-3-sulfonamide] showed an IC50 of less than 50 nM. `COc1ncc(Cl)cc1S(=O)(=O)Nc1ccc(F)c(-c2ccc3c(-c4ncc[nH]4)ncn3c2F)c1F` [Compound 104, 5-chloro-N-[2,4-difluoro-3-[5-fluoro-1-(1H-imidazol-2-yl)imidazo[1,5-a]pyridin-6-yl]phenyl]-2-methoxypyridine-3-sulfonamide] gave an IC50 of less than 50 nM.
